According to patent publication US20230174523A1, “BENZENESULFONAMIDE DERIVATIVES AS TRAP1 MODULATORS AND USES THEREOF” (Amathus Therapeutics, Inc., priority 2020, published 2023):

Target: T1, TRAP1 enzyme (Homo sapiens, UniProt Q12931)
T1 sequence (Q12931 60-704): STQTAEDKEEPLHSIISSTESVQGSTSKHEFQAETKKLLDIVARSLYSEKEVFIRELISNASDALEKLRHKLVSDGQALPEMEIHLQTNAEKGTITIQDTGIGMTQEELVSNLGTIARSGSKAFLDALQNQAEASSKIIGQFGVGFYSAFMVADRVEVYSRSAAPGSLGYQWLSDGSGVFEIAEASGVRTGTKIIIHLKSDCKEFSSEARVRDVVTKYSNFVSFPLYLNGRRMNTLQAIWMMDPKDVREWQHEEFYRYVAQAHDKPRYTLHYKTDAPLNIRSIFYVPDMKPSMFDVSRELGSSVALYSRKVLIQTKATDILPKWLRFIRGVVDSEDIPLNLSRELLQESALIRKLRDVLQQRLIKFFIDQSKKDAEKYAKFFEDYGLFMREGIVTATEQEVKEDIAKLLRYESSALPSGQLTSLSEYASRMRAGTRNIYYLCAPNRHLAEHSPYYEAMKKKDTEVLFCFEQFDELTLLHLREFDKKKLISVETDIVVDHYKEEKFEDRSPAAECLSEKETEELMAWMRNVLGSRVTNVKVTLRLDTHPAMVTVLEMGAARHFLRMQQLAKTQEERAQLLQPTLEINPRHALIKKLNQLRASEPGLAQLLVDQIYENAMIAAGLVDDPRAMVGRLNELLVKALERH
Assay: ADP Glo assay of TRAP1 ATPase activity
Format: biochemical
Settings: for EC50: TRAP1 ATPase activation, 150 nM Trap1, 20 μM ATP, geometric mean, read-out: ADP GLO DRC: GeoMean EC50; for Emax: read-out: ADP GLO DRC: Mean Emax
Procedure: Potency of test compounds to modulate the ATPase activity of TRAP1 enzyme was evaluated using ADP Glo assay. The assay is based on quantification of the ADP generated from ATP in the ATPase reaction. The assay is performed in two steps: first, after the ATPase reaction, an equal volume of ADP-Glo™ Reagent is added to terminate the ATPase reaction and deplete the remaining ATP. Second, the Kinase Detection Reagent is added to simultaneously convert ADP to ATP and allow the newly synthesized ATP to be measured using a luciferase/luciferin reaction.
All the assays were carried out in a 384-well Proxiplate. The buffer used was 25 mM Pipes pH-7.5, 40 mM KCl, 0.05 mM MgCl2, 0.025% BSA, 0.316 mM EGTA, 0.003% Empigen, 0.01% Igepal. 150 nM Trap1 enzyme was incubated with various concentrations of the test compound (0.79 μM-100 μM) at 37° C. for 30 mins (except in blank wells). 20 μM ATP was added to each well to start the reaction. The plate was spun for 1 min at 1200 rpm and then incubated at 37° C. for 60 mins. 5 μl of ADP Glo reagent was added to all the wells and spun the plate for 1 min at 1200 rpm and kept it on a shaker at ambient temperature for 60 mins. 10 μl of kinase detection mix was added to all the wells and the plate was read for Luminescence at 495 nm. The amount of ADP released was estimated from ATP/ADP standard curve generated at the same experimental conditions. Emax (Maximal percent activation) and EC50 (concentration for half maximal activation) were estimated by fitting the dose response data to a sigmoidal curve fitting equation using Graphpad Prism software V. 8.

EC50 | Emax | Compound
10 to 20 µM | 200 to 300% | COc1ccc(NC(=O)c2nn(C)c3c2CCC3)cc1S(=O)(=O)Nc1c(C)cccc1C [Compound 1010]
20 to 100 µM | 200 to 300% | COc1ccc(NC(=O)c2ncn(-c3cccc(F)c3)n2)cc1S(=O)(=O)Nc1c(C)cccc1C [Compound 1011]
< 10 µM | 123 to 159% | COc1ccc(NC(=O)c2ccc(C(F)(F)F)n2C)cc1S(=O)(=O)Nc1c(C)cccc1C [Compound 1013]
20 to 100 µM | 200 to 300% | COc1ccc(NC(=O)c2ccc3c(c2)C2CCCS2(=O)=N3)cc1S(=O)(=O)Nc1c(C)cccc1C (centres unmarked) [Compound 1016]
< 10 µM | 200 to 300% | COc1ccc(NC(=O)c2cccc3nc(C)sc23)cc1S(=O)(=O)Nc1c(C)cccc1C [Compound 1017]
10 to 20 µM | > 300% | CCc1cc(C(=O)Nc2ccc(OC)c(S(=O)(=O)Nc3c(C)cccc3C)c2)cc(C)n1 [Compound 1018]
< 10 µM | 160 to 199% | COc1ccc(NC(=O)c2ccc(-n3cccn3)cc2Cl)cc1S(=O)(=O)Nc1c(C)cccc1C [Compound 1019]
10 to 20 µM | 200 to 300% | COc1ccc(NC(=O)c2cc3cc(Br)cnc3s2)cc1S(=O)(=O)Nc1c(C)cccc1C [Compound 1020]
< 10 µM | 200 to 300% | COc1ccc(NC(=O)c2ccc(C)nc2OC)cc1S(=O)(=O)Nc1c(C)cccc1C [Compound 1021]
20 to 100 µM | 200 to 300% | COc1ccc(NC(=O)c2cnccc2-c2ccccc2)cc1S(=O)(=O)Nc1c(C)cccc1C [Compound 1022]
< 10 µM | 200 to 300% | COc1ccc(NC(=O)c2ccc3c(Br)nn(C)c3c2)cc1S(=O)(=O)Nc1c(C)cccc1C [Compound 1024]
10 to 20 µM | 160 to 199% | COc1ccc(NC(=O)c2ccccc2C2CC2)cc1S(=O)(=O)Nc1c(C)cccc1C [Compound 1028]
10 to 20 µM | > 300% | COc1ccc(NC(=O)c2ncn(Cc3ccccc3)n2)cc1S(=O)(=O)Nc1c(C)cccc1C [Compound 1029]
10 to 20 µM | 200 to 300% | COc1ccc(NC(=O)c2cc(-n3ccnc3)ccn2)cc1S(=O)(=O)Nc1c(C)cccc1C [Compound 1030]
10 to 20 µM | 200 to 300% | COc1ccc(NC(=O)c2cc(C3CC3)on2)cc1S(=O)(=O)Nc1c(C)cccc1C [Compound 1031]
< 10 µM | 200 to 300% | COc1ccc(NC(=O)c2cc(C(C)C)on2)cc1S(=O)(=O)Nc1c(C)cccc1C [Compound 1032]
< 10 µM | 160 to 199% | COc1ccc(NC(=O)c2ccc(F)c(-c3c(F)cccc3F)n2)cc1S(=O)(=O)Nc1c(C)cccc1C [Compound 1033]
< 10 µM | 160 to 199% | COc1ccc(NC(=O)c2cccc([C@H](F)c3cccc(F)c3)c2)cc1S(=O)(=O)Nc1c(C)cccc1C [Compound 1034]
< 10 µM | 123 to 159% | COc1ccc(NC(=O)c2cccc(Cc3ccc(F)cc3)c2)cc1S(=O)(=O)Nc1c(C)cccc1C [Compound 1036]
20 to 100 µM | 160 to 199% | COc1ccc(NC(=O)c2c(C)cc(Cl)nc2Cl)cc1S(=O)(=O)Nc1c(C)cccc1C [Compound 1037]
20 to 100 µM | 160 to 199% | COc1ccc(NC(=O)c2ccnc(SC)n2)cc1S(=O)(=O)Nc1c(C)cccc1C [Compound 1039]
< 10 µM | 200 to 300% | COc1ccc(NC(=O)c2cccc3c2OC(C)(C)CC3)cc1S(=O)(=O)Nc1c(C)cccc1C [Compound 1040]
< 10 µM | 200 to 300% | COc1ccc(NC(=O)c2cc3ccncc3s2)cc1S(=O)(=O)Nc1c(C)cccc1C [Compound 1043]

EC50 | Emax | Compound
10 to 20 µM | 123 to 159% | COc1ccc(NC(=O)c2cccnc2-c2ccc(C)cc2)cc1S(=O)(=O)Nc1c(C)cccc1C [Compound 1045]
20 to 100 µM | 160 to 199% | COc1ccc(NC(=O)c2cn(C(C)(C)C)nn2)cc1S(=O)(=O)Nc1c(C)cccc1C [Compound 1050]
20 to 100 µM | 160 to 199% | COc1ccc(NC(=O)c2ccc(C(C)(C)C)nc2)cc1S(=O)(=O)Nc1c(C)cccc1C [Compound 1052]
20 to 100 µM | 160 to 199% | COc1ccc(NC(=O)c2cccnc2-c2ccccc2C)cc1S(=O)(=O)Nc1c(C)cccc1C [Compound 1053]
20 to 100 µM | 123 to 159% | COc1ccc(NC(=O)c2onc3c2CCCC3)cc1S(=O)(=O)Nc1c(C)cccc1C [Compound 1056]
20 to 100 µM | 160 to 199% | COc1ccc(NC(=O)c2ccc(Cl)nc2C)cc1S(=O)(=O)Nc1c(C)cccc1C [Compound 1057]
< 10 µM | 200 to 300% | COc1ccc(NC(=O)c2cccc3ccn(C)c23)cc1S(=O)(=O)Nc1c(C)cccc1C [Compound 1060]
10 to 20 µM | 200 to 300% | COc1ccc(NC(=O)c2ccnn2-c2ccccc2)cc1S(=O)(=O)Nc1c(C)cccc1C [Compound 1061]
20 to 100 µM | 160 to 199% | COc1ccc(NC(=O)c2cc(Br)cnc2C)cc1S(=O)(=O)Nc1c(C)cccc1C [Compound 1062]
20 to 100 µM | > 300% | COc1ccc(NC(=O)c2ccc3nccnc3c2)cc1S(=O)(=O)Nc1c(C)cccc1C [Compound 1063]
20 to 100 µM | 200 to 300% | COc1ccc(NC(=O)c2cnc3ccoc3c2)cc1S(=O)(=O)Nc1c(C)cccc1C [Compound 1064]
< 10 µM | 123 to 159% | COc1ccc(NC(=O)c2cc(F)cc(Br)c2C)cc1S(=O)(=O)Nc1c(C)cccc1C [Compound 1065]
20 to 100 µM | 160 to 199% | COCCn1ccc(C(=O)Nc2ccc(OC)c(S(=O)(=O)Nc3c(C)cccc3C)c2)n1 [Compound 1066]
20 to 100 µM | 160 to 199% | COc1ccc(NC(=O)c2ccnc(Cl)c2C)cc1S(=O)(=O)Nc1c(C)cccc1C [Compound 1067]
< 10 µM | 200 to 300% | COc1ccc(NC(=O)c2cnn(Cc3ccccc3)c2)cc1S(=O)(=O)Nc1c(C)cccc1C [Compound 1068]
20 to 100 µM | 160 to 199% | COc1ccc(NC(=O)c2ncn(C(C)C)n2)cc1S(=O)(=O)Nc1c(C)cccc1C [Compound 1069]
< 10 µM | 200 to 300% | COc1ccc(NC(=O)c2cnc(Cl)s2)cc1S(=O)(=O)Nc1c(C)cccc1C [Compound 1070]
10 to 20 µM | 200 to 300% | COc1ccc(NC(=O)c2ccn(-c3ccccc3)n2)cc1S(=O)(=O)Nc1c(C)cccc1C [Compound 1071]
20 to 100 µM | 160 to 199% | COc1cnc(Cl)c(C(=O)Nc2ccc(OC)c(S(=O)(=O)Nc3c(C)cccc3C)c2)c1 [Compound 1072]
< 10 µM | 123 to 159% | COc1ccc(NC(=O)c2cnc(OC)c(C(F)(F)F)c2)cc1S(=O)(=O)Nc1c(C)cccc1C [Compound 1073]
20 to 100 µM | 160 to 199% | COc1ccc(NC(=O)c2cn(C)nc2C(F)F)cc1S(=O)(=O)Nc1c(C)cccc1C [Compound 1074]
< 10 µM | 160 to 199% | COc1ccc(NC(=O)c2cc(N3CCCC3)ccn2)cc1S(=O)(=O)Nc1c(C)cccc1C [Compound 1077]
< 10 µM | 160 to 199% | COc1ccc(NC(=O)c2cc(-c3ccnn3C)c(Cl)s2)cc1S(=O)(=O)Nc1c(C)cccc1C [Compound 1079]
